Read-outs that look alike come from different tables or passages of the source.
How the values were obtained:
UACC-257 = test: NCI growth inhibition and cytotoxicity screen, Melanoma panel; details: Homo sapiens, UACC-257, read-out: LC50
HCT-116 = test: NCI growth inhibition and cytotoxicity screen, Colon Cancer panel; details: Homo sapiens
SK-OV-3 = test: NCI growth inhibition and cytotoxicity screen, Ovarian Cancer panel; details: Homo sapiens
HOP-92 = test: NCI growth inhibition and cytotoxicity screen, Lung Cancer panel; details: Homo sapiens
SW-620 = test: NCI growth inhibition and cytotoxicity screen, Colon Cancer panel; details: Homo sapiens
OVCAR-8 = test: NCI growth inhibition and cytotoxicity screen, Ovarian Cancer panel; details: Homo sapiens
PC-3 = test: NCI growth inhibition and cytotoxicity screen, Prostate Cancer panel; details: Homo sapiens
HOP-62 = test: NCI growth inhibition and cytotoxicity screen, Lung Cancer panel; details: Homo sapiens
SN12C = test: NCI growth inhibition and cytotoxicity screen, Renal Cancer panel; details: Homo sapiens
RXF 393 = test: as above; details: Homo sapiens
NCI-H460 = test: NCI growth inhibition and cytotoxicity screen, Lung Cancer panel; details: Homo sapiens
HS 578T = test: NCI growth inhibition and cytotoxicity screen, Breast Cancer panel; details: Homo sapiens
M14 = test: NCI growth inhibition and cytotoxicity screen, Melanoma panel; details: Homo sapiens
OVCAR-4 = test: NCI growth inhibition and cytotoxicity screen, Ovarian Cancer panel; details: Homo sapiens
SK-MEL-5 = test: NCI growth inhibition and cytotoxicity screen, Melanoma panel; details: Homo sapiens
U251 = test: NCI growth inhibition and cytotoxicity screen, CNS Cancer panel; details: Homo sapiens
[1] = test system: full panel of 60 different cancer cell lines; test: NCI five dose screen, full panel summary; type: cell-based, human; details: for GI50: Homo sapiens
SNB-19 = test: NCI growth inhibition and cytotoxicity screen, CNS Cancer panel; details: Homo sapiens
HCT-15 = test: NCI growth inhibition and cytotoxicity screen, Colon Cancer panel; details: Homo sapiens
SR = test: NCI growth inhibition and cytotoxicity screen, Leukemia panel; details: Homo sapiens
NCI-H522 = test: NCI growth inhibition and cytotoxicity screen, Lung Cancer panel; type: cell-based; details: Homo sapiens, Table 2, cell line NCI-H522 (Lung Cancer)
HCC-2998 = test: NCI growth inhibition and cytotoxicity screen, Colon Cancer panel; details: Homo sapiens
SF-268 = test: NCI growth inhibition and cytotoxicity screen, CNS Cancer panel; details: Homo sapiens
DU-145 = test: NCI growth inhibition and cytotoxicity screen, Prostate Cancer panel; details: Homo sapiens
MDA-MB-468 = test: cells; details: Homo sapiens
SNB-75 = test: NCI growth inhibition and cytotoxicity screen, CNS Cancer panel; details: Homo sapiens
UACC-62 = test: NCI growth inhibition and cytotoxicity screen, Melanoma panel; details: Homo sapiens
A549/ATCC = test: NCI growth inhibition and cytotoxicity screen, Lung Cancer panel; details: Homo sapiens

`COc1cc(/C(C#N)=C/c2cnc3ccccc3c2)cc(OC)c1OC` [PNR-5-10, (Z)-3-(quinolin-3-yl)-2-(3,4,5-trimethoxyphenyl)acrylonitrile] was tested, and the CC50 (UACC-257) was greater than 100 µM, the GI50 (HCT-116; HCT-116) was 0.464 µM and the CC50 (HCT-116; HCT-116, read-out: LC50) was greater than 100 µM. For the same molecule, the GI50 (SK-OV-3; SK-OV-3) was 1.34 µM, the CC50 (SK-OV-3; SK-OV-3, read-out: LC50) was greater than 100 µM and the GI50 (HOP-92; HOP-92) was 0.403 µM. The CC50 (HOP-92; HOP-92, read-out: LC50) was greater than 100 µM, the GI50 (SW-620; SW-620) was 0.42 µM and the CC50 (SW-620; SW-620, read-out: LC50) was greater than 100 µM. It also gave a GI50 (OVCAR-8; OVCAR-8) of 3.41 µM, a CC50 (OVCAR-8; OVCAR-8, read-out: LC50) greater than 100 µM and a GI50 (PC-3; PC-3) of 1.08 µM. For the same molecule, the CC50 (PC-3; PC-3, read-out: LC50) was greater than 100 µM, the GI50 (HOP-62; HOP-62) was 10.3 µM and the CC50 (HOP-62; HOP-62, read-out: LC50) was greater than 100 µM. For the same molecule, the GI50 (SN12C) was 1.94 µM, the CC50 (SN12C; read-out: LC50) was greater than 100 µM and the GI50 (RXF 393; RXF 393) was 0.579 µM. It also gave a CC50 (RXF 393; RXF 393, read-out: LC50) greater than 100 µM, a GI50 (NCI-H460; NCI-H460) of 2.05 µM and a CC50 (NCI-H460; NCI-H460, read-out: LC50) greater than 100 µM. The GI50 (HS 578T) was 1.31 µM, the CC50 (HS 578T; read-out: LC50) was greater than 100 µM and the GI50 (M14; M14) was 0.54 µM. It also gave a CC50 (M14; M14, read-out: LC50) greater than 100 µM, a GI50 (OVCAR-4; OVCAR-4) of 13.8 µM and a CC50 (OVCAR-4; OVCAR-4, read-out: LC50) greater than 100 µM. It also gave a GI50 (SK-MEL-5; SK-MEL-5) of 0.41 µM, a CC50 (SK-MEL-5; SK-MEL-5, read-out: LC50) greater than 100 µM and a GI50 (U251; U-251) of 1.7 µM. The CC50 (U251; U-251, read-out: LC50) was greater than 100 µM, the GI50 ([1]; range over the potently inhibited cell lines, read-out: GI50 ranging (potently inhibited cancer cell lines)) was 0.227 to 0.911 µM and the GI50 ([1]; read-out: average GI50 value on all the cancer cell lines) was 2.49 µM. The “potent growth inhibition on % of the cancer cell lines” value ([1]; share of the cancer cell lines potently inhibited) was 47%, the GI50 (SNB-19; SNB-19) was 5.23 µM and the CC50 (SNB-19; SNB-19, read-out: LC50) was greater than 100 µM. For the same molecule, the GI50 (HCT-15; HCT-15) was 1.08 µM, the CC50 (HCT-15; HCT-15, read-out: LC50) was greater than 100 µM and the GI50 (SR) was 0.569 µM. The CC50 (SR; read-out: LC50) was greater than 100 µM, the GI50 (NCI-H522) was 0.299 µM and the CC50 (NCI-H522; read-out: LC50 (the source's name)) was greater than 100 µM. It also gave a GI50 (HCC-2998; HCC 2998) of 2.01 µM, a CC50 (HCC-2998; HCC 2998, read-out: LC50) greater than 100 µM and a GI50 (SF-268; SF-268) of 9.17 µM. It also gave a CC50 (SF-268; SF-268, read-out: LC50) greater than 100 µM, a GI50 (DU-145; DU-145) of 1.51 µM and a CC50 (DU-145; DU-145, read-out: LC50) greater than 100 µM. For the same molecule, the GI50 (MDA-MB-468; MDA-MB-468) was 0.87 µM, the CC50 (MDA-MB-468; MDA-MB-468, read-out: LC50) was greater than 100 µM and the GI50 (SNB-75; SNB-75) was 1.49 µM. For the same molecule, the CC50 (SNB-75; SNB-75, read-out: LC50) was greater than 100 µM, the GI50 (UACC-62; UACC-62) was 0.478 µM and the CC50 (UACC-62; UACC-62, read-out: LC50) was greater than 100 µM. For the same molecule, the GI50 (A549/ATCC; A549) was 0.68 µM and the CC50 (A549/ATCC; A549, read-out: LC50) was greater than 100 µM.

Reference: US9884842B2, “Combretastatin analogs” (The Board of Trustees of the University of Arkansas, priority 2013, dated 2018)
